Where “and” joins values, the source holds several entries; their conditions need not be identical. Equal entries are not always repeated.
How the values were obtained:
male ICR mice [1] = experiment: Hot plate test, analgesic efficacy (central nervous system); assay type: in vivo, mouse; conditions: G2, 60 mg/kg oral
Method: The experimental method used in this example is an analgesic efficacy experiment method using a hot plate test described in the “Guidelines for efficacy test of herbal preparations—General efficacy tests for painful diseases” announced by the Ministry of Food and Drug Safety, wherein the analgesic effect in the central nervous system of a mouse is measured with a response time to a heat stimulus as an index through a hot plate. At this time, the response time to the heat stimulus is measured as a time elapsed until the experimental animal licks the paw or jumps.
(§1) 1) Celebrex (Celecoxib, Pfizer, 200 mg), Saline (Chungwae Pharmaceutical), Chrysanthemum extract (Green Cross HS) and male ICR mice (6 weeks old, weight 30-35 g, Orient Bio) were prepared. In this example, the Chrysanthemum extract was extracted by the organic solvent extraction method described in the above preparative example wherein it was extracted using 70% ethanol.
(§2) 2) 60 mg/kg of Celebrex and 50, 100 and 200 mg/kg of Chrysanthemum extracts were prepared and orally administered to ICR mice, respectively. At this time, Celebrex is converted into administration concentration and suspended in saline while vortexing, and Chrysanthemum extract is suspended in 0.5% CMC and sonicated at 20 to 25° C. for about 10 minutes.
According to the efficacy experimental method using the hot plate test method, as the experimental animals, 5-week-old male ICR mice were purchased, acclimatized for 1 week, and then tested. The hot plate was maintained at 55° C., and drug administration was performed 30 minutes before this method. The central pain response due to heat was measured with an index, i.e., the time elapsed until the mouse licks the hind paw or jumps starting from contacting with the hot plate.
Then, the pain response due to heat was measured with an index, i.e., the time elapsed until the mouse licks the hind paw or jumps starting from contacting with the hot plate.

male ICR mice [2] = experiment: Acetic acid writhing test, analgesic efficacy (peripheral nerves); assay type: in vivo, mouse; conditions: G2, 60 mg/kg oral
Method: The experimental method used in this example is the “Acetic acid writhing test” described in the “Guidelines for efficacy test of herbal preparations—General efficacy tests for painful diseases” announced by the Ministry of Food and Drug Safety, wherein acetic acid is administered intraperitoneally to cause damage of capillaries and pain in the abdominal cavity, and the analgesic effect in peripheral nerves is measured using the abdominal contractile response as an index.
as §1, with “mg), acetic acid (Daejunghwageum),” for “mg),”, “(5” for “(6”, “old,” for “old, weight 30-35 g,”
as §2, with “mice.” for “mice, respectively.”
For the experimental method for analgesic effects to the acetic acid writhing test, as the experimental animals, 4-week-old male ICR mice were purchased, acclimatized for 1 week, and then tested. The Chrysanthemum extract and control drug, respectively, were orally administered to mice by dose, followed by intraperitoneal injection of acetic acid (0.7% acetic acid-physiological saline (0.1 ml/10 g B.W.)) 30 minutes after administration. Subsequently, from 5 minutes after injection, the number of occurrences of writhing was measured for 10 minutes (FIG. 3).
Subsequently, from 5 minutes after the intraperitoneal administration, the number of occurrences of writhing syndrome was counted for 10 minutes and results thereof are shown in FIG. 10 and Table 14.

## Cc1ccc(-c2cc(C(F)(F)F)nn2-c2ccc(S(N)(=O)=O)cc2)cc1 [Celecoxib]
Male ICR mice [1]
  Response time, % of control (increase rate): 53.9%
Male ICR mice [1]; hot plate 55° C., mice 1-8
  Response time, individual mouse: 26.94 s and 27.82 s and 35.55 s and 36.22 s and 28.54 s and 33.71 s and 32.71 s and 25.61 s
Male ICR mice [1]; n=8, control mean 20.07
  Response time, mean: 30.89 s
Male ICR mice [2]; 0.7% acetic acid i.p. 30 minutes after administration, mice 1-6
  Writhing syndrome/10 min, individual mouse: 9.00 /10 min and 6.00 /10 min and 15.00 /10 min and 14.00 /10 min and 25.00 /10 min and 18.00 /10 min
Male ICR mice [2]; n=6, control mean 28.33
  Writhing syndrome/10 min, mean: 14.50 /10 min
Male ICR mice [2]; Mus musculus, read-out: Writhing syndrome, % of control (inhibition rate, reduction compared to control)
  inhibition at 60 mg/kg: 48.9%

Source: patent publication US20240293490A1, “CHRYSANTHEMUM ZAWADSKII EXTRACT AND PREPARING METHOD THEREOF” (GREEN CROSS WELLBEING CORPORATION, priority 2023, published 2024)
